Experimental data as given in patent US20030017599A1, “Assay for the detection of selectable marker expression in plants” (priority 1999, published 2003).

Tests used:
Type in all cases: in vivo, corn (Zea mays)
[1] = tested on: Nontransgenic corn plants (H99); assay: Kanamycin, paromomycin and the combination with and without surfactant; settings: 20 μL, 5 plants, seven days
Procedure: Nontransgenic corn plants (H99) were tested at 24 days old using 5 plants for each treatment. Plants were treated with and without surfactant at two different concentrations of paromomycin, kanamycin, and the combination of paromomycin and kanamycin._On the day of application, an antibiotic solutions consisting of 750 mg/L or 1000 mg/L paromomycin and 0.06% (v/v) SILWET L-77 was prepared, as was a control solution consisting of 750 mg/L or 1000 mg/L of paromomycin in water. […] Antibiotic solution (20 μL) was applied to the whorl of each corn plant, from which any standing water has been removed beforehand.

[2] = tested on: Nontransgenic 3-week-old corn seedlings; assay: Titration of selective agents with cotton rolls tied to the whorl
Procedure: Nontransgenic 3-week-old corn seedlings were assayed in order to determine the quantity of selective agent necessary in order to obtain a response. […] Cotton rolls were saturated with solutions consisting of 0.03% SILWET L-77 and various concentrations of each of these three antibiotics individually and tied to the whorl of plants to be tested.
The concentrations of genenticin tested were 25 mg/mL, 50 mg/mL, 75 mg/mL, and 100 mg/mL.

[3] = tested on: corn plants containing NPTII protein; assay: Paromomycin as selective agent to identify corn plants containing NPTII protein (predicted); settings: 10 μL of 1000 mg/L paromomycin and 0.06% (v/v) SILWET L-77; five days
Source text: Samples of the plants may be taken and analyzed by ELISA for the presence or absence of NPTII protein prior to the start of the field test. […] Negative controls (i.e., nontransgenic plants) may be divided into two equal groups. […] The treated plants may then be scored for the presence or absence of necrosis five days after application of the antibiotic/[…]-77 solution or control solution. […] The field assay scores may then be correlated with the […] results.

[4] = 750 mg/L (each antibiotic), with 0.06% SILWET L-77
[5] = 750 mg/L (each antibiotic), without SILWET L-77
[6] = 1000 mg/L (each antibiotic), with 0.06% SILWET L-77
[7] = 1000 mg/L (each antibiotic), without SILWET L-77

## NC[C@H]1O[C@H](O[C@H]2[C@H](O)[C@@H](O[C@H]3O[C@H](CO)[C@@H](O)[C@H](N)[C@H]3O)[C@H](N)C[C@@H]2N)[C@H](O)[C@@H](O)[C@@H]1O [kanamycin]
[1]; [4]
  number of plants with mild symptoms: 0
  number of plants with no symptoms: 0
  number of plants with severe necrosis: 5
[1]; [5]
  number of plants with mild symptoms: 1
  number of plants with no symptoms: 4
  number of plants with severe necrosis: 0
[1]; [6]
  number of plants with mild symptoms: 2
  number of plants with no symptoms: 0
  number of plants with severe necrosis: 3
[1]; [7]
  number of plants with mild symptoms: 1
  number of plants with no symptoms: 4
  number of plants with severe necrosis: 0

## NC[C@@H]1O[C@H](O[C@H]2[C@@H](O)[C@H](O[C@@H]3[C@@H](O)[C@H](N)C[C@H](N)[C@H]3O[C@H]3O[C@H](CO)[C@@H](O)[C@H](O)[C@H]3N)O[C@@H]2CO)[C@H](N)[C@@H](O)[C@@H]1O [paromomycin]
[2]; 300 mg/L, 500 mg/L and 750 mg/L in 0.03% SILWET L-77, two days
  bleaching and necrosis in treated plant leaves: Slight to moderate necrosis and some bleaching
[2]; 1000 mg/L in 0.03% SILWET L-77, two days
  bleaching and necrosis in treated plant leaves: extreme necrosis and some bleaching
[1]; [4]
  number of plants with mild symptoms: 0
  number of plants with no symptoms: 2
  number of plants with severe necrosis: 3
[1]; [5]
  number of plants with mild symptoms: 0
  number of plants with no symptoms: 5
  number of plants with severe necrosis: 0
[1]; [6]
  number of plants with mild symptoms: 0
  number of plants with no symptoms: 1
  number of plants with severe necrosis: 4
[1]; [7]
  number of plants with mild symptoms: 0
  number of plants with no symptoms: 5
  number of plants with severe necrosis: 0
[3]
  necrosis relative to similarly treated leaves of corn plants that do not contain NPTII protein: reduced or no necrosis
